Consider 19 compounds from ChEMBL document CHEMBL2010698 (J Med Chem, 2012).

The target of series [1] is T1, Cholinesterase (Homo sapiens, UniProt P06276).
Description: Inhibition of human serum BChE using butyrylthiocholine iodide as substrate preincubated for 20 mins prior substrate addition measured after 5 mins by spectrophotometry
Series [2] addresses T2, Acetylcholinesterase (Homo sapiens, UniProt P22303).
Description: Competitive inhibition of human recombinant AChE by Lineweaver-Burk plot analysis
Series [3] addresses T2, Acetylcholinesterase. The source holds these as a separate data set.
Description: Inhibition of human recombinant AChE using acetylthiocholine iodide as substrate preincubated for 20 mins prior substrate addition measured after 5 mins by spectrophotometry
In series [4] the target is T3, Beta-secretase 1 (Homo sapiens, UniProt P56817). Put plainly: Inhibition of human recombinant BACE-1 using M-2420 as substrate preincubated for 1 hr prior substrate addition measured after 15 mins by spectrofluorimetry.
Series [5] is described as follows: Inhibition of self-induced Abeta1-42 aggregation after 24 hrs by thioflavin T fluorescence method.
Series [6] addresses T3, Beta-secretase 1. To be noted: 5 uM.
Description: Inhibition of human recombinant BACE-1 using panvera peptide as substrate at 5 uM preincubated for 60 mins prior substrate addition measured after 60 mins by spectrofluorimetry
In series [7] the target is T1, Cholinesterase. Put plainly: Ratio of (+/-)-huprine Y IC50 to compound IC50 for human serum BChE.
A further series can be described thus: in vitro. The conditions noted are these: pig, PAMPA. On the technique in general: PAMPA measures passive passage across an artificial lipid membrane.
Series [8] deals with T4, Acetylcholinesterase (Bos taurus, UniProt P23795).
T4 sequence (P23795 whole entry): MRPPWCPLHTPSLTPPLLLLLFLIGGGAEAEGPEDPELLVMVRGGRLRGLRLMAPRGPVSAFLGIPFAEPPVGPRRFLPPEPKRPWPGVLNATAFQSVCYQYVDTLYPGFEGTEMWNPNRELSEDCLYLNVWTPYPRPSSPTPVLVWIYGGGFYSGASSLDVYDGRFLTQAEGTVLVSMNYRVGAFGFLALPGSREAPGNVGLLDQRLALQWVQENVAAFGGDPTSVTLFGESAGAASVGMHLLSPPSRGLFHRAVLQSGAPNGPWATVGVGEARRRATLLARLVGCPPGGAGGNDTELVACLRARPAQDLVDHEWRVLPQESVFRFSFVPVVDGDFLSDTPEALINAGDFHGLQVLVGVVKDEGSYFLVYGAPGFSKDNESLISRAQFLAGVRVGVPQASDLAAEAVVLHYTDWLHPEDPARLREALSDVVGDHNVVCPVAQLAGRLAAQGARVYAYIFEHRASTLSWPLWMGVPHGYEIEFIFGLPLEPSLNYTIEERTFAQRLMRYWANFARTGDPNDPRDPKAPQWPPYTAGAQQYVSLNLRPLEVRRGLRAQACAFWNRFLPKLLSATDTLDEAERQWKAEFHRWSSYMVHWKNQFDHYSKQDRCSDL
Put plainly: Inhibition of bovine AChE-induced coumarin-tagged PrP106-126 aggregation after 48 hrs by fluorescence microscopy.

Series [9] addresses T2, Acetylcholinesterase. The series can be described thus: Inhibition of human recombinant AChE-induced Abeta1-40 aggregation by thioflavin T fluorescence method.
The species named for another series is Mus musculus. The series can be described thus: animal or person. The conditions noted are these: OF1, Brain, ip, 20 min, read-out: INH.

T3 sequence (P56817 whole entry): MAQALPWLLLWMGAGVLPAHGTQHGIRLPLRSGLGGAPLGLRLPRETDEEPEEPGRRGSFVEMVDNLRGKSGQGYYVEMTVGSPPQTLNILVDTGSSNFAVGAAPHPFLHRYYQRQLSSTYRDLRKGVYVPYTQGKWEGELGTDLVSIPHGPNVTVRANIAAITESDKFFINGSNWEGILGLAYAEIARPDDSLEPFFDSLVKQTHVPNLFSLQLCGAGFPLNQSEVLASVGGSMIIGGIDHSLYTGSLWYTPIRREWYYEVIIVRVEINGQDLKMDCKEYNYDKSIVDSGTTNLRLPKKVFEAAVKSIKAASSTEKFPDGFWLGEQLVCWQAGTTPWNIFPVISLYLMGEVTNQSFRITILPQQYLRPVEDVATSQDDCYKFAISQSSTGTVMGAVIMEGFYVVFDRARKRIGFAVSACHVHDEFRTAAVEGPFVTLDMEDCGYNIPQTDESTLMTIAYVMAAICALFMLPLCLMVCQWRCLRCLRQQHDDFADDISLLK
T1 sequence (P06276 whole entry): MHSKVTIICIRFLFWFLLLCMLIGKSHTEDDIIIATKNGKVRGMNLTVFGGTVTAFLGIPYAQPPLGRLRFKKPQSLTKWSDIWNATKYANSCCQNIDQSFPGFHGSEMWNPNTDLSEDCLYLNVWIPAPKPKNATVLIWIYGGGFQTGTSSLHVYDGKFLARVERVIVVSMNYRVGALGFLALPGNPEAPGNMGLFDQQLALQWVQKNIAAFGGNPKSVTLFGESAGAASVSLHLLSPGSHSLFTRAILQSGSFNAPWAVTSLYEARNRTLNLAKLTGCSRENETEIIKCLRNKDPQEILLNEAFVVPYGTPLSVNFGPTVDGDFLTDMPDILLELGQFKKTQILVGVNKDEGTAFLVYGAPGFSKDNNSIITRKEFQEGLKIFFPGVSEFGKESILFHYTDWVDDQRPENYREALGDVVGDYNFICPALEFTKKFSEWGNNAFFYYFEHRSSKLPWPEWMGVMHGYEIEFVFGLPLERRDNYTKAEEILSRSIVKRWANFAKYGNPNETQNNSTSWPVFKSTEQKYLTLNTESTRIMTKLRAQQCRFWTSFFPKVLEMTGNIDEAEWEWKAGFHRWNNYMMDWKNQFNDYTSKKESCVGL
T2 sequence (P22303 whole entry): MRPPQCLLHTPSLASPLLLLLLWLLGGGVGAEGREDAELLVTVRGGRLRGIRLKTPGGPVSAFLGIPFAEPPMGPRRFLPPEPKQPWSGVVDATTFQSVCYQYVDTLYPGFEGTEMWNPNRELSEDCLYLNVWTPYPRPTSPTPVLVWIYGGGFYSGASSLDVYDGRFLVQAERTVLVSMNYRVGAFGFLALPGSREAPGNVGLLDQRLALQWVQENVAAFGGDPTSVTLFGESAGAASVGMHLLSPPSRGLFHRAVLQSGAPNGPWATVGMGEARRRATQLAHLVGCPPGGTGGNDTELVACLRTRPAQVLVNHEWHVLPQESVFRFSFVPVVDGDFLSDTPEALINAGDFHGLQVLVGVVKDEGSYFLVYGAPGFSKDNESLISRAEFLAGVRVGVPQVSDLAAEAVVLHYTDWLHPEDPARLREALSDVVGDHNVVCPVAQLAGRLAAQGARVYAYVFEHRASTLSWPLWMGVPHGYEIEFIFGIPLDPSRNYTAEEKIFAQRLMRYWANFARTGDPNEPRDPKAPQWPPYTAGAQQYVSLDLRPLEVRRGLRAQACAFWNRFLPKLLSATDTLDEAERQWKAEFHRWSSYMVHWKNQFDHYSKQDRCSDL
Description for in vitro: Permeability across porcine brain lipid layer after 240 mins by PAMPA-BBB assay

By IC50 is commonly meant the point on the concentration scale where inhibition reaches its midpoint. In the case of `CC1=C[C@@H]2Cc3nc4cc(Cl)ccc4c(NCCCCCCCNc4c5c(nc6cc(Cl)ccc46)CCCC5)c3[C@H](C1)C2`, the IC50 came out at 86.8 nM against Cholinesterase [1], 2.04 nM against Acetylcholinesterase [3] and 5700 nM on Beta-secretase 1 [4]. The Kic on Acetylcholinesterase [2] amounted to 1.51 nM.
Take `CC1=C[C@H]2Cc3nc4cc(Cl)ccc4c(NCCCCCCCNc4c5c(nc6cc(Cl)ccc46)CCCC5)c3[C@@H](C1)C2`: the IC50 stood at 47.4 nM against Cholinesterase [1], 11.5 nM on Acetylcholinesterase [3] and 5900 nM on Beta-secretase 1 [4].
On to `CC1=C[C@@H]2Cc3nc4cc(Cl)ccc4c(NCCCCCCCNc4c5c(nc6ccccc46)CCCC5)c3[C@H](C1)C2`, for which the concentration for half-maximal inhibition (IC50) against Cholinesterase [1] was 133 nM; against Acetylcholinesterase [3], 1.33 nM; in series [5], at most 10000 nM.
Take `CC1=C[C@H]2Cc3nc4cc(Cl)ccc4c(NCCCCCCCNc4c5c(nc6ccccc46)CCCC5)c3[C@@H](C1)C2`: the 50% inhibitory concentration (IC50) at Cholinesterase [1] is 139 nM; at Acetylcholinesterase [3], 6.84 nM; in series [5] it was at most 10000 nM.
By inhibition is commonly meant the percentage by which the read-out fell short of the control. Lower therefore signals little suppression. In turn, `CC1=C[C@@H]2Cc3nc4cc(Cl)ccc4c(N)c3[C@H](C1)C2` returned an inhibition on Beta-secretase 1 [6] of 14%.
Same read-out and setting: next, `CC1=C[C@H]2Cc3nc4cc(Cl)ccc4c(N)c3[C@@H](C1)C2`: 13.6%.
As usually defined, the Papp is the rate of passage across a membrane or cell layer, normalised by area and donor concentration. High values mean fast passage, low ones slow passage. With `CC1=CC2Cc3nc4cc(Cl)ccc4c(NCCCCCCNc4c5c(nc6ccccc46)CCCC5)c3C(C1)C2.Cl` (racemic), the IC50 at Cholinesterase [1] was found to be 24.6 nM; against Acetylcholinesterase [3] it was 0.89 nM. Besides, the Ratio IC50 at Cholinesterase [7] amounted to 6. The compound further showed an apparent permeability (Papp) at 4 h in the series “in vitro” of 10.7 ×10⁻⁶ cm/s.
Consider `CC1=CC2Cc3nc4cc(Cl)ccc4c(NCCCN(C)CCCNc4c5c(nc6ccccc46)CCCC5)c3C(C1)C2.Cl` (racemic), for which the 50% inhibitory concentration (IC50) at Cholinesterase [1] was determined as 44.2 nM; on Acetylcholinesterase [3], 0.42 nM. This compound also displayed a Papp at 4 h in “in vitro” of 11.4 ×10⁻⁶ cm/s.
As to `CC1=CC2Cc3nc4cc(Cl)ccc4c(NCCCCCCCCNc4c5c(nc6ccccc46)CCCC5)c3C(C1)C2.Cl` (racemic), the IC50 against Cholinesterase [1] is 74.2 nM; on Acetylcholinesterase [8] it was 68.7 nM; against Acetylcholinesterase [3], 1.38 nM; at Acetylcholinesterase [9], 61300 nM; in series [5], at most 10000 nM. In addition, in the series filed under Mus musculus, the inhibition in vivo at 10 µmol/kg was found to be 30%. The compound also displayed a Papp at 4 h in “in vitro” of 10.2 ×10⁻⁶ cm/s.
In the case of `CC1=CC2Cc3nc4cc(Cl)ccc4c(NCCCCCCNc4c5c(nc6cc(Cl)ccc46)CCCC5)c3C(C1)C2.Cl` (racemic), the 50% inhibitory concentration (IC50) against Cholinesterase [1] came to 75.2 nM; against Acetylcholinesterase [3], 0.74 nM. Besides, the Papp at 4 h in “in vitro” was determined as 12 ×10⁻⁶ cm/s.
With `CC1=CC2Cc3nc4cc(Cl)ccc4c(NCCCN(C)CCCNc4c5c(nc6cc(Cl)ccc46)CCCC5)c3C(C1)C2.Cl` (racemic), the IC50 against Cholinesterase [1] turned out to be 51.3 nM; at Acetylcholinesterase [3] it was 0.31 nM. Moreover, the apparent permeability coefficient (Papp) at 4 h in the series “in vitro” turned out to be 7 ×10⁻⁶ cm/s.
`CC1=CC2Cc3nc4cc(Cl)ccc4c(NCCCCCCCCNc4c5c(nc6cc(Cl)ccc46)CCCC5)c3C(C1)C2.Cl` (racemic): the half-inhibitory concentration (IC50) at Cholinesterase [1] worked out at 35.1 nM; against Acetylcholinesterase [8] it was 263 nM; at Acetylcholinesterase [3] it was 1.32 nM; at Beta-secretase 1 [4], 4900 nM. For the same compound, the inhibition in vivo at 10 µmol/kg in the series filed under Mus musculus stood at 28.5%. The same compound came in with a Papp at 4 h in the series “in vitro” of 21.1 ×10⁻⁶ cm/s.
With `CC1=CC2Cc3nc4cc(Cl)ccc4c(NCCCCCCCNc4c5c(nc6ccccc46)CCCC5)c3C(C1)C2.Cl.Cl.Cl` (racemic), the results for the half-inhibitory concentration (IC50) (at Cholinesterase [1]; against Acetylcholinesterase [3]; in series [5]) were 87.1 nM, 1.89 nM and at most 10000 nM, respectively. This compound also registered an apparent permeability (Papp) at 4 h in the series “in vitro” of 12.5 ×10⁻⁶ cm/s.
`CC1=CC2Cc3nc4cc(Cl)ccc4c(NCCCCCCCCCNc4c5c(nc6ccccc46)CCCC5)c3C(C1)C2.Cl.Cl.Cl` (racemic): in “in vitro”, the Papp at 4 h was found to be 6 ×10⁻⁶ cm/s.
For `CC1=CC2Cc3nc4cc(Cl)ccc4c(NCCCCCCCCCCNc4c5c(nc6ccccc46)CCCC5)c3C(C1)C2.Cl.Cl.Cl` (racemic), the half-maximal inhibitory concentration (IC50) on Cholinesterase [1] is 26.6 nM; against Acetylcholinesterase [3], 4.19 nM; on Beta-secretase 1 [4], 7300 nM. Besides, the Ratio IC50 at Cholinesterase [7] worked out at 6. This compound also had a Papp at 4 h in the series “in vitro” of 16.3 ×10⁻⁶ cm/s.
Regarding `CC1=CC2Cc3nc4cc(Cl)ccc4c(NCCCCCCCNc4c5c(nc6cc(Cl)ccc46)CCCC5)c3C(C1)C2.Cl.Cl.Cl.Cl` (racemic), the IC50 stood at 73.3 nM at Cholinesterase [1] and 4.02 nM on Acetylcholinesterase [3]. Further, in the series “in vitro”, the Papp at 4 h came to 20.9 ×10⁻⁶ cm/s.
`CC1=CC2Cc3nc4cc(Cl)ccc4c(NCCCCCCCCCNc4c5c(nc6cc(Cl)ccc46)CCCC5)c3C(C1)C2.Cl.Cl.Cl.Cl` (racemic): the half-maximal inhibitory concentration (IC50) turned out to be 27.2 nM against Cholinesterase [1], 3.26 nM at Acetylcholinesterase [3] and 5800 nM at Beta-secretase 1 [4]. Besides, at Cholinesterase [7], the Ratio IC50 is 6. In the series “in vitro”, this compound gave a Papp at 4 h of 15.6 ×10⁻⁶ cm/s.
In the case of `CC1=CC2Cc3nc4cc(Cl)ccc4c(NCCCCCCCCCCNc4c5c(nc6cc(Cl)ccc46)CCCC5)c3C(C1)C2.Cl.Cl.Cl.Cl` (racemic), the figures for the IC50 against Cholinesterase [1], against Acetylcholinesterase [3] and on Beta-secretase 1 [4] were 76.6 nM, 9.09 nM and 6600 nM, respectively. In the series “in vitro”, the apparent permeability (Papp) at 4 h was 29.1 ×10⁻⁶ cm/s.
`CC1=CC2Cc3nc4cc(Cl)ccc4c(N)c3C(C1)C2` (racemic): half-maximal inhibition against Cholinesterase [1] (IC50) required 175 nM.
